One experiment relates to ACHN renal cancer cells. Briefly: SRB dose-response assay for synergy with TRAIL (percent growth inhibition). The following applies: 4 h presensitization, TRAIL 20 ng/mL, FIG. 11. The class given is cell-based. The text has this:
FIG. 11 depicts the dose-response curves for withanolide E and withanolide S in the presence of TRAIL. The y-axis represents percent growth inhibition for ACHN renal cancer cells. The lines labeled “−TRAIL” are the dose-response curves for withanolide E and withanolide S in the absence of TRAIL. The lines labeled “predicted +TRAIL” is the predicted additive percent growth inhibition resulting from addition of the growth inhibition due to withanolide E and withanolide S plus TRAIL. The lines labeled “Actual +TRAIL” is the actual percent growth inhibition determined by the assay.
This Example illustrates another aspect of the assay. […] Controls were combined on each assay plate and included: SRB background absorbance (no cells), untreated (DMSO-only) cells, TRAIL-only cells, cytotoxicity positive control −TRAIL (sanguinarine hydrochloride; one concentration), and synergy positive control +TRAIL (bortezomib; one conconcentrion plus a dose-response range).
Compound dilutions were prepared in clear test medium and added to cells. […] Dye was resolubilized by addition of 10 mM TRIZMA base solution (30 μL) and resuspended on a rotary shaker for a few minutes before reading the plates for absorbance at 520 nm using a Safire plate reader (Tecan Group Ltd., Männedorf, Switzerland). […]

The test system of the next experiment is caspase-8 in ACHN cells. Briefly: Western blot of caspase-8 cleavage after sensitizer plus TRAIL. The class given is cell-based. The following applies: compound 10 μM, sensitized 4 h, then TRAIL 40 ng/mL, FIG. 5. Here is the method:
This Example illustrates cleavage of caspase resulting from treatment of cells with anolides in combination with TRAIL. ACHN cells were seeded into 6-well tissue culture plates at […] cells/well in clear test medium and the next day compound was added to a final concentration of 10 μM. Cells were sensitized for 4 h followed by addition of TRAIL to 40 ng/mL final concentration. Cells were harvested in lysis buffer at short intervals after addition of the TRAIL reagent using 165 μL per well. Lysis buffer contained: 50 mM Tris-Cl (pH 8.0), 300 mM NaCl, 5 mM EDTA, 0.5% Triton X-100, 40 μM Z-VAD-FMK, plus one mini-complete protease inhibitor tablet (Roche, Mannheim, Germany) or 100 μL Halt Protease Inhibitor Single-Use Cocktail (Pierce Biotechnology, Inc., Rockford, Ill.) per 6 mL buffer. Lysates were clarified by centrifugation at 4° C. for 15 min at 15,000 rpm and protein content normalized using the bicinchonic acid (BCA) assay (Pierce Biotechnology, Inc.).
Lysates were run under reducing conditions at 20 μg total protein per lane, in NuPAGE 4-12% Bis-Tris gels (1.0 mm×12 well; Invitrogen), using MESS DS running buffer and added antioxidant in the upper chamber. […]
The Western blots determined using the above protocol for withanolide E is depicted in FIG. 5.
A general note: In western blotting, separated proteins are transferred to a membrane and probed.

The values that follow come from US9238069B2, “Method of sensitizing cancer cells to the cytotoxic effects of death receptor ligands in cancer treatment” (The United States of America, as represented by the …, priority 2009, dated 2016).

In the case of withanolide S, the “percent growth inhibition in combination with TRAIL versus sensitizer alone or TRAIL alone (synergistic response)” value in the experiment on ACHN renal cancer cells is on record as “substantially greater”.

With withanolide E, the “percent growth inhibition in combination with TRAIL versus sensitizer alone or TRAIL alone (synergistic response)” value in the experiment on ACHN renal cancer cells is given as “substantially greater”. In the experiment with caspase-8 in ACHN cells, the “cleavage of caspase-8” value is given as “resulted in the cleavage of caspase-8”.
